Reference: patent publication US20230085307A1, “PYRIDAZINONE COMPOUND AND HERBICIDE” (NISSAN CHEMICAL CORPORATION, priority 2019, published 2023)

Experiments:
[1] = tested on: late watergrass; assay: Test Example 2: herbicidal activity, application during weed generation under submerged conditions (Table 17, symbol A); type: in vivo, late watergrass (Echinochloa oryzicola); conditions: application during weed generation, submerged conditions
Method in brief: (§1)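 Mixed weed seedlings in alluvial soil under a 4 cm water layer, greenhouse-grown at 25–30° C. Compound given as a diluted emulsion into the floodwater at the 1–2 leaf stage; response graded after three weeks.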

[2] = tested on: Japanese bulrush; assay: Test Example 2: herbicidal activity, application during weed generation under submerged conditions (Table 17, symbol B); type: in vivo, Japanese bulrush (Schoenoplectus juncoides); conditions: application during weed generation, submerged conditions
Method in brief: as §1

[3] = tested on: barnyard grass; assay: Test Example 3: herbicidal effect by foliage application, Wagner pot (Table 18, symbol H); type: in vivo, barnyard grass (Echinochloa crus-galli)
Method in brief: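 Plants were sown in alluvial soil held under 0.1–0.5 cm standing water and grown 14 days in a greenhouse at 25–30 °C. An emulsifiable formulation, water-diluted to the set dose, was then sprayed onto the foliage, and effects were scored three weeks later using previously defined criteria.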

[4] = tested on: green foxtail; assay: Test Example 4: herbicidal effect by soil treatment (Table 19, symbol G); type: in vivo, green foxtail (Setaria viridis)
Method in brief: (§2)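 Soil-surface application: an emulsion agent diluted with water to the predetermined dose is sprayed uniformly over seeds lying under roughly 1.5 cm of sterilized diluvial soil. Boxes stay in a greenhouse at 25° C. to 30° C. Three weeks later, each species is graded on previously defined criteria.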

[5] = tested on: barnyard grass; assay: Test Example 4: herbicidal effect by soil treatment (Table 19, symbol H); type: in vivo, barnyard grass (Echinochloa crus-galli)
Method in brief: as §2

[6] = tested on: wild oat; assay: Test Example 4: herbicidal effect by soil treatment (Table 19, symbol I); type: in vivo, wild oat (Avena fatua)
Method in brief: as §2

[7] = tested on: blackgrass; assay: Test Example 4: herbicidal effect by soil treatment (Table 19, symbol J); type: in vivo, blackgrass (Alopecurus myosuroides)
Method in brief: as §2

[8] = tested on: Italian ryegrass; assay: Test Example 4: herbicidal effect by soil treatment (Table 19, symbol K); type: in vivo, Italian ryegrass (Lolium multiflorum)
Method in brief: as §2

[9] = tested on: velvetleaf; assay: Test Example 4: herbicidal effect by soil treatment (Table 19, symbol M); type: in vivo, velvetleaf (Abutilon theophrasti)
Method in brief: as §2

[10] = tested on: lambsquarters; assay: Test Example 4: herbicidal effect by soil treatment (Table 19, symbol O); type: in vivo, lambsquarters (Chenopodium album)
Method in brief: as §2

[11] = tested on: chickweed; assay: Test Example 4: herbicidal effect by soil treatment (Table 19, symbol P); type: in vivo, common chickweed (Stellaria media)
Method in brief: as §2

[12] = tested on: blackgrass; assay: Test Example 5: herbicidal effect by foliage application, plastic box (Table 20, symbol J); type: in vivo, blackgrass (Alopecurus myosuroides); conditions: foliage application, three weeks after application
Method in brief: (§3)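 Sow seeds spot-wise in sterilized diluvial soil; cover with ~1.5 cm soil. Grow 14 days in greenhouse, 25° C. to 30° C. Spray foliage with emulsion diluted to predetermined amount. Rate effect after 3 weeks.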

[13] = tested on: Italian ryegrass; assay: Test Example 5: herbicidal effect by foliage application, plastic box (Table 20, symbol K); type: in vivo, Italian ryegrass (Lolium multiflorum); conditions: foliage application, three weeks after application
Method in brief: as §3

[14] = tested on: velvetleaf; assay: Test Example 5: herbicidal effect by foliage application, plastic box (Table 20, symbol M); type: in vivo, velvetleaf (Abutilon theophrasti); conditions: foliage application, three weeks after application
Method in brief: as §3

[15] = tested on: persian speedwell; assay: Test Example 5: herbicidal effect by foliage application, plastic box (Table 20, symbol R); type: in vivo, Persian speedwell (Veronica persica); conditions: foliage application, three weeks after application
Method in brief: as §3

[16] = amount of applied herbicide 390 g/ha
[17] = amount of applied herbicide 320 g/ha

| SMILES | herbicidal effect rating, A: late watergrass ([1]; AAH 320 g/ha) | herbicidal effect rating, B: Japanese bulrush ([2]; AAH 320 g/ha) | Herbicidal effect on H (barnyard grass), foliage application [3, 17] | G: green foxtail, herbicidal effect grade [4, 17] | H: barnyard grass, herbicidal effect grade [5, 17] | I: wild oat, herbicidal effect grade [6, 17] | J: blackgrass, herbicidal effect grade [7, 17] | K: Italian ryegrass, herbicidal effect grade [8, 17] | M: velvetleaf, herbicidal effect grade [9, 17] | O: lambsquarters, herbicidal effect grade [10, 17] | P: chickweed, herbicidal effect grade [11, 17] | herbicidal effect on blackgrass (J) ([12]; 320 g/ha) | herbicidal effect on Italian ryegrass (K) ([13]; 320 g/ha) | herbicidal effect on velvetleaf (M) ([14]; 320 g/ha) | herbicidal effect on persian speedwell (R) ([15]; 320 g/ha) | other results |
| --- | --- | --- | --- | --- | --- | --- | --- | --- | --- | --- | --- | --- | --- | --- | --- | --- |
| CCCC(=O)Oc1c(C)nn(C)c(=O)c1-c1c(-c2ccc(F)cc2)oc2ccc(C)cc12 [9-005] | – | – | – | – | – | – | – | – | – | – | – | – | – | – | – | herbicidal effect rating, A: late watergrass ([1]; AAH 390 g/ha): 0 (Herbicidal rate of 5% or less (almost no effect)); herbicidal effect rating, B: Japanese bulrush ([2]; AAH 390 g/ha): 1 (Herbicidal rate of 5% or more and less than 20%); Herbicidal effect on H (barnyard grass), foliage application [3, 16]: 3 (Herbicidal rate of 40% or more and less than 70%); G: green foxtail, herbicidal effect grade [4, 16]: 0 (Herbicidal rate of 5% or less (almost no effect)); H: barnyard grass, herbicidal effect grade [5, 16]: 0 (Herbicidal rate of 5% or less (almost no effect)); I: wild oat, herbicidal effect grade [6, 16]: 0 (Herbicidal rate of 5% or less (almost no effect)); J: blackgrass, herbicidal effect grade [7, 16]: 0 (Herbicidal rate of 5% or less (almost no effect)); K: Italian ryegrass, herbicidal effect grade [8, 16]: 0 (Herbicidal rate of 5% or less (almost no effect)); M: velvetleaf, herbicidal effect grade [9, 16]: 0 (Herbicidal rate of 5% or less (almost no effect)); O: lambsquarters, herbicidal effect grade [10, 16]: 3 (Herbicidal rate of 40% or more and less than 70%); P: chickweed, herbicidal effect grade [11, 16]: 5 (Herbicidal rate of 90% or more (almost completely withered)); herbicidal effect on blackgrass (J) ([12]; 390 g/ha): 0 (Herbicidal rate of 5% or less (almost no effect)); herbicidal effect on Italian ryegrass (K) ([13]; 390 g/ha): 4 (Herbicidal rate of 70% or more and less than 90%); herbicidal effect on velvetleaf (M) ([14]; 390 g/ha): 5 (Herbicidal rate of 90% or more (almost completely withered)); herbicidal effect on persian speedwell (R) ([15]; 390 g/ha): 5 (Herbicidal rate of 90% or more (almost completely withered)) |
| COc1ccc(-c2oc3ccc(C)cc3c2-c2c(O)c(C)nn(C)c2=O)cc1 [9-007] | 4 (Herbicidal rate of 70% or more and less than 90%) | 5 (Herbicidal rate of 90% or more (almost completely withered)) | 4 (Herbicidal rate of 70% or more and less than 90%) | 3 (Herbicidal rate of 40% or more and less than 70%) | 3 (Herbicidal rate of 40% or more and less than 70%) | 1 (Herbicidal rate of 5% or more and less than 20%) | 4 (Herbicidal rate of 70% or more and less than 90%) | 5 (Herbicidal rate of 90% or more (almost completely withered)) | 3 (Herbicidal rate of 40% or more and less than 70%) | 4 (Herbicidal rate of 70% or more and less than 90%) | 4 (Herbicidal rate of 70% or more and less than 90%) | 4 (Herbicidal rate of 70% or more and less than 90%) | 5 (Herbicidal rate of 90% or more (almost completely withered)) | 5 (Herbicidal rate of 90% or more (almost completely withered)) | 5 (Herbicidal rate of 90% or more (almost completely withered)) | – |
| CCCC(=O)Oc1c(C)nn(C)c(=O)c1-c1c(-c2ccc(OC)cc2)oc2ccc(C)cc12 [9-008] | 1 (Herbicidal rate of 5% or more and less than 20%) | 5 (Herbicidal rate of 90% or more (almost completely withered)) | 2 (Herbicidal rate of 20% or more and less than 40%) | 2 (Herbicidal rate of 20% or more and less than 40%) | 3 (Herbicidal rate of 40% or more and less than 70%) | 0 (Herbicidal rate of 5% or less (almost no effect)) | 0 (Herbicidal rate of 5% or less (almost no effect)) | 4 (Herbicidal rate of 70% or more and less than 90%) | 0 (Herbicidal rate of 5% or less (almost no effect)) | 4 (Herbicidal rate of 70% or more and less than 90%) | 0 (Herbicidal rate of 5% or less (almost no effect)) | 1 (Herbicidal rate of 5% or more and less than 20%) | 5 (Herbicidal rate of 90% or more (almost completely withered)) | 5 (Herbicidal rate of 90% or more (almost completely withered)) | 5 (Herbicidal rate of 90% or more (almost completely withered)) | – |
| CCOc1ccc(-c2oc3ccc(F)cc3c2-c2c(O)c(C)nn(C)c2=O)cc1 [9-021] | 4 (Herbicidal rate of 70% or more and less than 90%) | 3 (Herbicidal rate of 40% or more and less than 70%) | 3 (Herbicidal rate of 40% or more and less than 70%) | 4 (Herbicidal rate of 70% or more and less than 90%) | 4 (Herbicidal rate of 70% or more and less than 90%) | 0 (Herbicidal rate of 5% or less (almost no effect)) | 4 (Herbicidal rate of 70% or more and less than 90%) | 5 (Herbicidal rate of 90% or more (almost completely withered)) | 3 (Herbicidal rate of 40% or more and less than 70%) | 4 (Herbicidal rate of 70% or more and less than 90%) | 0 (Herbicidal rate of 5% or less (almost no effect)) | 1 (Herbicidal rate of 5% or more and less than 20%) | 5 (Herbicidal rate of 90% or more (almost completely withered)) | 5 (Herbicidal rate of 90% or more (almost completely withered)) | 5 (Herbicidal rate of 90% or more (almost completely withered)) | – |
| CCCOc1ccc(-c2oc3ccc(F)cc3c2-c2c(O)c(C)nn(C)c2=O)cc1 [9-023] | 5 (Herbicidal rate of 90% or more (almost completely withered)) | 3 (Herbicidal rate of 40% or more and less than 70%) | 5 (Herbicidal rate of 90% or more (almost completely withered)) | 5 (Herbicidal rate of 90% or more (almost completely withered)) | 5 (Herbicidal rate of 90% or more (almost completely withered)) | 0 (Herbicidal rate of 5% or less (almost no effect)) | 0 (Herbicidal rate of 5% or less (almost no effect)) | 5 (Herbicidal rate of 90% or more (almost completely withered)) | 3 (Herbicidal rate of 40% or more and less than 70%) | 5 (Herbicidal rate of 90% or more (almost completely withered)) | 0 (Herbicidal rate of 5% or less (almost no effect)) | 4 (Herbicidal rate of 70% or more and less than 90%) | 5 (Herbicidal rate of 90% or more (almost completely withered)) | 5 (Herbicidal rate of 90% or more (almost completely withered)) | 5 (Herbicidal rate of 90% or more (almost completely withered)) | – |
